The target of this test is T1, human kinase Mps-1 (Homo sapiens, UniProt P33981).
T1 construct: N-terminally GST-tagged human full length recombinant Mps-1 kinase; GST (N); purchased Invitrogen, Karslruhe, Germany PV4071
T1 sequence (P33981 1-857): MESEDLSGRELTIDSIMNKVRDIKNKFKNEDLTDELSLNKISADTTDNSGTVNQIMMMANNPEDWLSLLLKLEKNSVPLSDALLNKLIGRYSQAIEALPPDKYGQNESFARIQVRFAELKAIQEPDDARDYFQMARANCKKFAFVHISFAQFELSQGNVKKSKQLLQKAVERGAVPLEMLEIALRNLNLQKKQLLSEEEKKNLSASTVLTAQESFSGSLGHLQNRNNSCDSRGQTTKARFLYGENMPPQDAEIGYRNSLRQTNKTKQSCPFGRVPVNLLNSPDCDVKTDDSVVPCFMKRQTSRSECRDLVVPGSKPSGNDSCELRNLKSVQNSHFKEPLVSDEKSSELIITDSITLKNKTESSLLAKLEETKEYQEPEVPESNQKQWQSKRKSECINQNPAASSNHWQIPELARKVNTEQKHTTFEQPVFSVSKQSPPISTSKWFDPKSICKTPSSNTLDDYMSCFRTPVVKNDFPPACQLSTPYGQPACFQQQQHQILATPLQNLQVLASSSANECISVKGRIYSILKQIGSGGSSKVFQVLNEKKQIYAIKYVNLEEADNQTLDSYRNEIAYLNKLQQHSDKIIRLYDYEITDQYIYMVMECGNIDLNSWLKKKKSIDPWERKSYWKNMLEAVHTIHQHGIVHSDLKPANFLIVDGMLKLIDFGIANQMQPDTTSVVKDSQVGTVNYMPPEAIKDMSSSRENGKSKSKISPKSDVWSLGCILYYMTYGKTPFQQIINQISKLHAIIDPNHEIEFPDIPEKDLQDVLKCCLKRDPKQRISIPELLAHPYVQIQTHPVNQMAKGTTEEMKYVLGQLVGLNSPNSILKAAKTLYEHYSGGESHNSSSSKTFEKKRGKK
As to the kind of experiment: Mps-1 kinase assay (HTRF). The class given is biochemical. As to the method:
The human kinase Mps-1 phosphorylates a biotinylated substrate peptide. Detection of the phosphorylated product is achieved by homogenous time-resolved fluorescence resonance energy transfer (HTRF) from Europium-labelled anti-phospho-Serine/Threonine antibody as donor to streptavidin labelled with cross-linked allophycocyanin (SA-XLent) as acceptor. Compounds are tested for their inhibition of the kinase activity.
N-terminally GST-tagged human full length recombinant Mps-1 kinase (purchased from Invitrogen, Karslruhe, Germany, cat. no PV4071) was used. As substrate for the kinase reaction a biotinylated peptide of the amino-acid sequence […] (C-terminus in amide form, purchased from Biosynthan GmbH, Berlin) was used.
The concentration of Mps-1 in the assay was adjusted to the activity of the enzyme lot and was chosen appropriate to have the assay in the linear range, typical enzyme concentrations were in the range of about 1 nM (final conc. in the 5 μl assay volume).
The resulting mixture was incubated 1 h at 22° C. to allow the binding of the phosphorylated peptide to the anti-phospho(Ser/Thr)-Europium-antibody. Subsequently the amount of phosphorylated substrate was evaluated by measurement of the resonance energy transfer from the Europium-labelled anti-phospho(Ser/Thr) antibody to the Streptavidin-XLent.
For orientation: TR-FRET usually uses a lanthanide donor and a delayed reading to cut background.

Bounds are passed on as bounds.

What is called IC50 is the concentration that gives 50% inhibition.

For the compound `Cc1cc(O)ccc1-c1ccc2nc(Nc3ccccc3C#N)nn2c1` [Example 3.9, 2-{[6-(4-hydroxy-2-methylphenyl)[1,2,4]triazolo[1,5-a]pyridin-2-yl]amino}benzonitrile], half-maximal inhibition (IC50) required 740 nM.

Compound `CNC(=O)c1ccc(-c2ccc3nc(Nc4ccccc4C#N)nn3c2)cc1` [Example 3.10, 4-{2-[(2-cyanophenyl)amino] [1,2,4]triazolo[1,5-a]pyridin-6-yl}-N-methylbenzamide] returned an IC50 of 24 nM.

As for `N#Cc1ccccc1Nc1nc2ccc(-c3cccc(F)c3)cn2n1` [Example 3.12, 2-{[6-(3-fluorophenyl)[1,2,4]triazolo[1,5-a]pyridin-2-yl]amino}benzonitrile], the IC50 was determined as 890 nM.

Consider `COc1ccccc1-c1ccc2nc(Nc3ccccc3C#N)nn2c1` [Example 3.13, 2-{[6-(2 methoxyphenyl)[1,2,4]triazolo[1,5-a]pyridin-2-yl]amino}benzonitrile], for which half-maximal inhibition (IC50) required 1200 nM.

`N#Cc1ccccc1Nc1nc2ccc(-c3ccc(CO)cc3)cn2n1` [Example 3.14, 2-({6-[4-(hydroxymethyl)phen-yl][1,2,4]triazolo[1,5-a]pyridin-2-yl}amino)benzonitrile] registered an IC50 of 770 nM.

In turn, `N#Cc1ccccc1Nc1nc2ccc(-c3cccc(O)c3)cn2n1` [Example 3.17, 2-{[6-(3-hydroxyphenyl)[1,2,4]triazolo[1,5-a]pyridin-2-yl]amino}benzonitrile] displayed an IC50 of 28 nM.

`COc1c(C)cc(-c2ccc3nc(Nc4ccccc4C#N)nn3c2)cc1C` [Example 3.19, 2-{[6-(4-methoxy-3,5-dimethylphenyl)[1,2,4]triazolo[1,5-a]pyridin-2-yl]amino}benzonitrile] showed an IC50 of 96 nM.

For the compound `N#Cc1ccc(-c2ccc3nc(Nc4ccccc4C#N)nn3c2)cc1` [Example 3.20, 2-{[6-(4-cyanophenyl)[1,2,4]triazolo[1,5-a]pyridin-2-yl]amino}benzonitrile], the IC50 came to 1500 nM.

Turning to `N#Cc1ccccc1Nc1nc2ccc(-c3ccc4[nH]ccc4c3)cn2n1` [Example 3.21, 2-{[6-(1H-indol-5-yl)[1,2,4]triazolo[1,5-a]pyridin-2-yl]amino}benzonitrile], the IC50 was found to be 210 nM.

On to `N#Cc1ccccc1Nc1nc2ccc(-c3ccc(N)cc3)cn2n1` [Example 4.2, 2-{[6-(4-aminophenyl)[1,2,4]triazolo[1,5-a]pyridin-2-yl]amino}benzonitrile], for which the IC50 stood at 46 nM.

In turn, `CC(=O)Nc1ccc(-c2ccc3nc(Nc4ccccc4C#N)nn3c2)cc1` [Example 4.3, N-(4-{2-[(2-cyanophenyl)amino][1,2,4]triazolo[1,5-a]pyridin-6-yl}phenyl)acetamide] showed an IC50 of 28 nM.

For `COc1ccccc1Nc1nc2ccc(-c3ccc(N)cc3)cn2n1` [Example 5.2, 6-(4-aminophenyl)-N-(2-methoxyphenyl)[1,2,4]triazolo[1,5-a]pyridin-2-amine], half-maximal inhibition (IC50) was put at 72 nM.

Compound `COc1ccccc1Nc1nc2ccc(-c3ccc(NC(C)=O)cc3)cn2n1` [Example 5.3, N-(4-{2-[(2-methoxyphenyl)amino][1,2,4]triazolo[1,5-a]pyridin-6-yl}phenyl)acetamide] showed an IC50 of 76 nM.

Regarding `O=C(CCl)Nc1ccc(-c2ccc3nc(Nc4ccccc4C(F)(F)F)nn3c2)cc1` [Example 6.3, 2-chloro-N-[4-(2-{[2-(trifluoromethyl)phenyl]amino}[1,2,4]triazolo[1,5-a]pyridin-6-yl)phenyl]acetamide], 220 nM corresponded to half-maximal inhibition (IC50).

With `COc1ccccc1Nc1nc2ccc(-c3cccc(NS(C)(=O)=O)c3)cn2n1` [Example 8.3, N-(3-{2-[(2-methoxyphenyl)amino][1,2,4]triazolo[1,5-a]pyridin-6-yl}phenyl)methanesulfonamide], the IC50 came out at 190 nM.

Compound `COc1ccccc1Nc1nc2ccc(-c3cccc(NC(=O)NC(C)C)c3)cn2n1` [Example 8.4, 1-(3-{2-[(2-methoxyphenyl)amino][1,2,4]triazolo[1,5-a]pyridin-6-yl}phenyl)-3-propan-2-ylurea] returned an IC50 of 92 nM.

The compound `CCOC(=O)c1cccc(-c2ccc3nc(Nc4ccccc4C#N)nn3c2)c1` [Example 9.1, ethyl 3-{2-[(2-cyanophenyl)amino][1,2,4]triazolo[1,5-a]pyridin-6-yl}benzoate] came in with an IC50 of 500 nM. Compared with the last compound, the IC50 is about 5.4-fold higher.

Take `N#Cc1ccccc1Nc1nc2ccc(-c3cccc(C(=O)O)c3)cn2n1` [Example 9.2, 3-{2-[(2-cyanophenyl)amino][1,2,4]triazolo[1,5-a]pyridin-6-yl}benzoic acid]: inhibition was half-maximal at 72 nM (IC50). This IC50 is about 6.9-fold lower than that of the compound before.

Consider `CC(C)NC(=O)c1cccc(-c2ccc3nc(Nc4ccccc4C#N)nn3c2)c1` [Example 9.4, 3-{2-[(2-cyanophenyl)amino][1,2,4]triazolo[1,5-a]pyridin-6-yl}-N-(propan-2-yl)benzamide], for which the IC50 was found to be 8.8 nM.

Compound `O=C(NCC(F)(F)F)c1ccc(-c2ccc3nc(Nc4cccnc4OCC(F)(F)F)nn3c2)cc1` [Example 11.001, 4-(2-{[2-(2,2,2-trifluoroethoxy)pyridin-3-yl]amino}[1,2,4]triazolo[1,5-a]-pyridin-6-yl)-N-(2,2,2-trifluoroethyl)benzamide] returned an IC50 of at most 1 nM.

Compound `CC(C)(C)NC(=O)c1ccc(Nc2nc3ccc(-c4ccc(C(=O)NCC(F)(F)F)cc4)cn3n2)c(OCC(F)(F)F)c1` [Example 11.002, N-tert-butyl-3-(2,2,2-trifluoroethoxy)-4-[(6-{4-[(2,2,2-trifluoroethyl)-carbamoyl]phenyl}[1,2,4]triazolo[1,5-a]pyridin-2-yl)amino]benzamide] had an IC50 of at most 1 nM.

Compound `CCOc1ncccc1Nc1nc2ccc(-c3ccc(C(=O)NCC(F)(F)F)cc3)cn2n1` [Example 11.003, 4-{2-[(2-ethoxypyridin-3-yl)amino][1,2,4]triazolo[1,5-a]pyridin-6-yl}-N-(2,2,2-trifluoroethyl)benzamide] came in with an IC50 of 3.74 nM.

The compound `COc1cc(C(=O)NC(C)(C)C)ccc1Nc1nc2ccc(-c3ccc(C(=O)NCC(F)(F)F)cc3)cn2n1` [Example 11.005, N-tert-butyl-3-methoxy-4-[(6-{4-[(2,2,2-trifluoroethyl)carbamoyl]phenyl}[1,2,4]triazolo[1,5-a]pyridin-2-yl)amino]benzamide] registered an IC50 of 1.01 nM.

Compound `CCNC(=O)c1ccc(Nc2nc3ccc(-c4ccc(C(=O)NCC(F)(F)F)cc4)cn3n2)c(OC)c1` [Example 11.006, N-ethyl-3-methoxy-4-[(6-{4-[(2,2,2-trifluoroethyl)carbamoyl]phenyl}[1,2,4]triazolo[1,5-a]pyridin-2-yl)amino]benzamide] returned an IC50 of at most 1 nM.

For the compound `CNCCN(C)C(=O)c1ccc(Nc2nc3ccc(-c4ccc(C(=O)NCC(F)(F)F)cc4)cn3n2)c(OC)c1` [Example 11.007, 3-methoxy-N-methyl-N-[2-(methylamino)ethyl]-4-[(6-{4-[(2,2,2-trifluoroethyl)carbamoyl]phenyl}[1,2,4]triazolo[1,5-a]pyridin-2-yl)amino]benzamide], the IC50 was at most 1 nM.

The compound `N#Cc1ccccc1Nc1nc2ccc(-c3ccc(C(=O)O)cc3)cn2n1` [Example 11.009, 4-{2-[(2-cyanophenyl)amino][1,2,4]triazolo[1,5-a]pyridin-6-yl}benzoic acid] had an IC50 of 1550 nM.

Regarding `N#Cc1ccccc1Nc1nc2ccc(-c3ccc(C(=O)NCC(F)(F)F)cc3)cn2n1` [Example 11.010, 4-{2-[(2-cyanophenyl)amino][1,2,4]triazolo[1,5-a]pyridin-6-yl}-N-(2,2,2-trifluoroethyl)benzamide], the IC50 turned out to be 1.61 nM. Against the preceding compound, the IC50 is about 960-fold lower.

Take `CC(C)(C)CNC(=O)c1ccc(-c2ccc3nc(Nc4ccccc4C#N)nn3c2)cc1` [Example 11.012, 4-{2-[(2-cyanophenyl)amino][1,2,4]triazolo[1,5-a]pyridin-6-yl}-N-(2,2-dimethylpropyl)benzamide]: inhibition was half-maximal at 8.28 nM (IC50).

`CC(C)(C)OC(=O)c1ccc(-c2ccc3nc(Nc4ccccc4C#N)nn3c2)cc1` [Example 11.013, tert-butyl 4-{2-[(2-cyanophenyl)amino][1,2,4]triazolo[1,5-a]pyridin-6-yl}benzoate] gave an IC50 of 1060 nM.

The values above are taken from US20130121994A1, “TRIAZOLOPYRIDINE DERIVATIVES” (BAYER INTELLECTUAL PROPERTY GMBH, priority 2009, published 2013).
